Reference: paper PMC5218480 (PLoS ONE, 2017)

Tested on: MV-4-11 cells
Assay: Gene expression microarray analysis (Affymetrix PrimeView) and GSEA
Format: cell-based, human
Parameters: RFU PODN (11730768_x_at) / Fold change /veh PODN (11730768_x_at) / RFU LINC00158 (11744669_a_at) / Fold change /veh LINC00158 (11744669_a_at) / RFU DUSP10 (11751237_a_at) / Fold change /veh DUSP10 (11751237_a_at) / RFU ID3 (11757404_x_at) / Fold change /veh ID3 (11757404_x_at) / RFU PLEKHG5 (11737974_s_at) / Fold change /veh PLEKHG5 (11737974_s_at) / RFU LRRC4B (11730491_at) / Fold change /veh LRRC4B (11730491_at) / RFU GIMAP4 (11747438_a_at) / Fold change /veh GIMAP4 (11747438_a_at) / RFU KRT8 (11758183_x_at) / Fold change /veh KRT8 (11758183_x_at) / RFU CNN1 (11734310_a_at) / Fold change /veh CNN1 (11734310_a_at) / RFU VPS37D (11726825_at) / Fold change /veh VPS37D (11726825_at) / RFU C10orf10 (11716522_x_at) / Fold change /veh C10orf10 (11716522_x_at) / RFU KIR2DL2 /// KIR2DL4 /// KIR2DL5A /// KIR2DL5B /// KIR2DS1 /// KIR2DS2 /// KIR2DS3 /// KIR2DS4 /// KIR3DL3 /// KIR3DL3 /// KIR3DS1 (11738374_at) / Fold change /veh KIR2DL2 /// KIR2DL4 /// KIR2DL5A /// KIR2DL5B /// KIR2DS1 /// KIR2DS2 /// KIR2DS3 /// KIR2DS4 /// KIR3DL3 /// KIR3DL3 /// KIR3DS1 (11738374_at) / RFU C1QL1 (11718748_at) / Fold change /veh C1QL1 (11718748_at) / RFU TMPRSS4 (11747572_a_at) / Fold change /veh TMPRSS4 (11747572_a_at) / RFU HAMP (11756126_x_at) / Fold change /veh HAMP (11756126_x_at) / RFU RNFT2 (11725882_a_at) / Fold change /veh RNFT2 (11725882_a_at) / RFU NR4A2 (11747474_a_at) / Fold change /veh NR4A2 (11747474_a_at) / RFU ABCC12 (11746883_a_at) / Fold change /veh ABCC12 (11746883_a_at) / RFU TMEM136 (11760407_x_at) / Fold change /veh TMEM136 (11760407_x_at) / RFU CLDN22 /// WWC2 (11732394_at) / Fold change /veh CLDN22 /// WWC2 (11732394_at) / RFU HLA-DPB1 (11760878_x_at) / Fold change /veh HLA-DPB1 (11760878_x_at) / RFU SPINT1 (11716480_a_at) / Fold change /veh SPINT1 (11716480_a_at) / RFU GAP43 (11754022_s_at) / Fold change /veh GAP43 (11754022_s_at) / RFU A4GNT (11735810_at) / Fold change /veh A4GNT (11735810_at) / RFU PRB3 (11715151_x_at) / Fold change /veh PRB3 (11715151_x_at) / RFU TUBB4B (11761932_at) / Fold change /veh TUBB4B (11761932_at) / RFU CAPN14 (11732068_a_at) / Fold change /veh CAPN14 (11732068_a_at) / RFU TMCC2 (11721928_a_at) / Fold change /veh TMCC2 (11721928_a_at) / RFU IRGQ (11745062_a_at) / Fold change /veh IRGQ (11745062_a_at) / RFU FAM174B (11720279_a_at) / Fold change /veh FAM174B (11720279_a_at) / RFU TMPRSS4 (11748680_a_at) / Fold change /veh TMPRSS4 (11748680_a_at) / RFU FAM212B (11763350_a_at) / Fold change /veh FAM212B (11763350_a_at) / RFU PLEKHG5 (11743358_a_at) / Fold change /veh PLEKHG5 (11743358_a_at) / RFU ZSCAN30 (11745921_a_at) / Fold change /veh ZSCAN30 (11745921_a_at) / RFU CMKLR1 (11741424_a_at) / Fold change /veh CMKLR1 (11741424_a_at) / RFU LOC101060620 /// MAPK8IP1 (11723275_at) / Fold change /veh LOC101060620 /// MAPK8IP1 (11723275_at) / RFU SPTSSB (11747773_x_at) / Fold change /veh SPTSSB (11747773_x_at) / RFU PRSS12 (11739890_at) / Fold change /veh PRSS12 (11739890_at) / RFU BIN1 (11741810_x_at) / Fold change /veh BIN1 (11741810_x_at) / RFU WNT11 (11732464_a_at) / Fold change /veh WNT11 (11732464_a_at) / RFU C10orf10 (11716521_a_at) / Fold change /veh C10orf10 (11716521_a_at) / RFU C5orf56 (11738089_at) / Fold change /veh C5orf56 (11738089_at) / RFU CYB561 (11721691_x_at) / Fold change /veh CYB561 (11721691_x_at) / RFU ANKRD19P (11752326_a_at) / Fold change /veh ANKRD19P (11752326_a_at) / RFU OR2T12 /// OR2T33 /// OR2T8 (11738714_s_at) / Fold change /veh OR2T12 /// OR2T33 /// OR2T8 (11738714_s_at) / RFU VCAN (11748164_a_at) / Fold change /veh VCAN (11748164_a_at) / RFU JSRP1 (11732532_at) / Fold change /veh JSRP1 (11732532_at) / RFU KRTAP10-11 (11738290_x_at) / Fold change /veh KRTAP10-11 (11738290_x_at) / RFU MYO3A (11730013_a_at) / Fold change /veh MYO3A (11730013_a_at) / RFU EBF3 (11725865_a_at) / Fold change /veh EBF3 (11725865_a_at) / RFU CAMK2N1 (11719241_x_at) / Fold change /veh CAMK2N1 (11719241_x_at) / RFU C5orf56 (11738088_a_at) / Fold change /veh C5orf56 (11738088_a_at) / RFU OLFML3 (11715873_a_at) / Fold change /veh OLFML3 (11715873_a_at) / RFU LOC100653217 /// NTM (11731650_a_at) / Fold change /veh LOC100653217 /// NTM (11731650_a_at) / RFU MAPK11 (11762145_a_at) / Fold change /veh MAPK11 (11762145_a_at) / RFU FIZ1 (11724087_x_at) / Fold change /veh FIZ1 (11724087_x_at) / RFU OASL (11726364_x_at) / Fold change /veh OASL (11726364_x_at) / RFU SOX15 (11748057_x_at) / Fold change /veh SOX15 (11748057_x_at) / RFU CD79A (11719716_a_at) / Fold change /veh CD79A (11719716_a_at) / RFU HIST1H1D (11736915_at) / Fold change /veh HIST1H1D (11736915_at) / RFU CASKIN2 (11723855_a_at) / Fold change /veh CASKIN2 (11723855_a_at) / RFU LOC730098 (11760151_x_at) / Fold change /veh LOC730098 (11760151_x_at) / RFU OR4N2 (11742367_at) / Fold change /veh OR4N2 (11742367_at) / RFU PRRT2 (11749266_a_at) / Fold change /veh PRRT2 (11749266_a_at) / RFU SNX32 (11753110_a_at) / Fold change /veh SNX32 (11753110_a_at) / RFU CDHR5 (11726645_a_at) / Fold change /veh CDHR5 (11726645_a_at) / RFU RCAN1 (11760418_a_at) / Fold change /veh RCAN1 (11760418_a_at) / RFU FAM167A (11723789_a_at) / Fold change /veh FAM167A (11723789_a_at) / RFU FAM26E (11764081_at) / Fold change /veh FAM26E (11764081_at) / RFU ISYNA1 (11749810_s_at) / Fold change /veh ISYNA1 (11749810_s_at) / RFU ACY1 (11761880_at) / Fold change /veh ACY1 (11761880_at) / RFU 11764098_at / Fold change /veh 11764098_at / RFU SAMD14 (11745864_x_at) / Fold change /veh SAMD14 (11745864_x_at) / RFU NPB (11741838_a_at) / Fold change /veh NPB (11741838_a_at) / RFU TMPRSS6 (11731388_a_at) / Fold change /veh TMPRSS6 (11731388_a_at) / RFU KRTAP10-2 (11738614_at) / Fold change /veh KRTAP10-2 (11738614_at) / RFU ARHGAP8 /// PRR5-ARHGAP8 (11727945_x_at) / Fold change /veh ARHGAP8 /// PRR5-ARHGAP8 (11727945_x_at) / RFU KRTAP5-7 /// NADSYN1 (11734609_at) / Fold change /veh KRTAP5-7 /// NADSYN1 (11734609_at) / RFU RASL12 (11751679_a_at) / Fold change /veh RASL12 (11751679_a_at) / RFU CDKN2B (11736163_a_at) / Fold change /veh CDKN2B (11736163_a_at) / RFU PRF1 (11729649_at) / Fold change /veh PRF1 (11729649_at) / RFU, ZNF638 /// ZNF638-IT1 / Fold change vs veh, ZNF638 /// ZNF638-IT1 / RFU, PANK3 / Fold change vs veh, PANK3 / RFU, SH3YL1 / Fold change vs veh, SH3YL1 / RFU, ZEB2 / Fold change vs veh, ZEB2 / RFU, NRIP1 / Fold change vs veh, NRIP1 / RFU, PTTG1IP / Fold change vs veh, PTTG1IP / RFU, CAPN2 / Fold change vs veh, CAPN2 / RFU, MED14 / Fold change vs veh, MED14 / RFU, SNORA58 / Fold change vs veh, SNORA58 / RFU, C1orf63 / Fold change vs veh, C1orf63 / RFU, LRRFIP1 / Fold change vs veh, LRRFIP1 / RFU, NDUFAF7 / Fold change vs veh, NDUFAF7 / RFU, SLC12A2 / Fold change vs veh, SLC12A2 / RFU, IBTK / Fold change vs veh, IBTK / RFU, ESF1 / Fold change vs veh, ESF1 / Fold change vs veh, TMEM50B / RFU, TAOK1 / Fold change vs veh, TAOK1 / RFU, ACBD3 / Fold change vs veh, ACBD3 / RFU, TMA16 / Fold change vs veh, TMA16 / RFU, RWDD3 / Fold change vs veh, RWDD3 / RFU, BCAT1 / Fold change vs veh, BCAT1 / RFU, EDEM3 / Fold change vs veh, EDEM3 / RFU, TMEM33 / Fold change vs veh, TMEM33 / RFU, WDR75 / Fold change vs veh, WDR75 / RFU, AHCTF1 / Fold change vs veh, AHCTF1 / RFU, TFRC / Fold change vs veh, TFRC / RFU, ZDHHC17 / Fold change vs veh, ZDHHC17 / RFU, NOM1 / Fold change vs veh, NOM1 / RFU, ARL8B / Fold change vs veh, ARL8B / RFU, ZBTB11 / Fold change vs veh, ZBTB11 / RFU, TAMM41 / Fold change vs veh, TAMM41 / RFU, KIAA1704 /// LOC100996395 / Fold change vs veh, KIAA1704 /// LOC100996395 / RFU, ING1 / Fold change vs veh, ING1 / RFU, TRMT61B / Fold change vs veh, TRMT61B / RFU, FUBP3 / Fold change vs veh, FUBP3 / RFU, TP53 / Fold change vs veh, TP53 / RFU, TNKS2 / Fold change vs veh, TNKS2 / RFU, ZFP14 / Fold change vs veh, ZFP14 / RFU, ACTR2 / Fold change vs veh, ACTR2 / RFU, PPP3R1 / Fold change vs veh, PPP3R1 / RFU, PIK3R1 / Fold change vs veh, PIK3R1 / RFU, HNRNPA1 / Fold change vs veh, HNRNPA1 / RFU, RNF170 / Fold change vs veh, RNF170 / RFU, ZNF28 / Fold change vs veh, ZNF28 / RFU, RNGTT / Fold change vs veh, RNGTT / RFU, OGT / Fold change vs veh, OGT / RFU, BRD1 / Fold change vs veh, BRD1 / RFU, MARS / Fold change vs veh, MARS / RFU, ZNF655 / Fold change vs veh, ZNF655 / RFU, FAHD1 / Fold change vs veh, FAHD1 / RFU, BDP1 / Fold change vs veh, BDP1 / RFU, LRRCC1 / Fold change vs veh, LRRCC1 / RFU, ARID1A / Fold change vs veh, ARID1A / RFU, ZNF146 / Fold change vs veh, ZNF146 / RFU, ZNF330 / Fold change vs veh, ZNF330 / RFU, GPN3 / Fold change vs veh, GPN3 / RFU, C9orf123 / Fold change vs veh, C9orf123 / RFU, N4BP2L2 / Fold change vs veh, N4BP2L2 / RFU, ARFIP1 / Fold change vs veh, ARFIP1 / RFU, FAM179B / Fold change vs veh, FAM179B / RFU, BCL10 / Fold change vs veh, BCL10 / RFU, UHRF1BP1L / Fold change vs veh, UHRF1BP1L / RFU, BET1 / Fold change vs veh, BET1 / RFU, CNOT2 / Fold change vs veh, CNOT2 / RFU, ZNF268 / Fold change vs veh, ZNF268 / Fold change vs veh, ZNF507 / RFU, DGCR2 / Fold change vs veh, DGCR2 / RFU, WDSUB1 / Fold change vs veh, WDSUB1 / Fold change vs veh, HSP90B1 /// MIR3652 / RFU, ADSS / Fold change vs veh, ADSS / RFU, GK / Fold change vs veh, GK / RFU, ZNF148 / Fold change vs veh, ZNF148 / RFU, TAF9 / Fold change vs veh, TAF9 / RFU, SLC1A5 / Fold change vs veh, SLC1A5 / RFU, SLMO2 / Fold change vs veh, SLMO2 / RFU, ABCC4 / Fold change vs veh, ABCC4 / RFU, LOC101060439 /// RAP1B / Fold change vs veh, LOC101060439 /// RAP1B / RFU, RFX7 / Fold change vs veh, RFX7 / RFU, GTPBP10 / Fold change vs veh, GTPBP10 / RFU, CNEP1R1 / Fold change vs veh, CNEP1R1 / RFU, BIVM-ERCC5 /// ERCC5 / Fold change vs veh, BIVM-ERCC5 /// ERCC5 / RFU, ILF3 / Fold change vs veh, ILF3 / RFU 11762660_at / Fold change /veh 11762660_at / RFU VCAN (11757783_s_at) / Fold change /veh VCAN (11757783_s_at) / RFU DDX43 (11728927_at) / Fold change /veh DDX43 (11728927_at) / RFU KRT8 (11758188_x_at) / Fold change /veh KRT8 (11758188_x_at) / RFU NKD1 (11759106_at) / Fold change /veh NKD1 (11759106_at) / RFU SRD5A1 (11742802_a_at) / Fold change /veh SRD5A1 (11742802_a_at) / RFU TPSAB1 /// TPSB2 (11721975_s_at) / Fold change /veh TPSAB1 /// TPSB2 (11721975_s_at) / RFU GSTM3 (11746129_a_at) / Fold change /veh GSTM3 (11746129_a_at) / RFU IL23R (11737362_x_at) / Fold change /veh IL23R (11737362_x_at) / RFU TMEM51 (11727254_a_at) / Fold change /veh TMEM51 (11727254_a_at) / RFU PIWIL2 (11732686_x_at) / Fold change /veh PIWIL2 (11732686_x_at) / RFU ORM1 (11744905_x_at) / Fold change /veh ORM1 (11744905_x_at) / RFU CCDC152 (11743942_at) / Fold change /veh CCDC152 (11743942_at) / RFU ECM1 (11717891_a_at) / Fold change /veh ECM1 (11717891_a_at) / RFU IL23R (11748794_a_at) / Fold change /veh IL23R (11748794_a_at) / RFU TNFAIP8L3 (11732012_x_at) / Fold change /veh TNFAIP8L3 (11732012_x_at) / RFU MBOAT4 (11741988_at) / Fold change /veh MBOAT4 (11741988_at) / RFU 11764193_at / Fold change /veh 11764193_at / RFU TMEM53 (11763286_at) / Fold change /veh TMEM53 (11763286_at) / RFU MAGEB2 (11727129_at) / Fold change /veh MAGEB2 (11727129_at) / RFU TMEM200A (11744735_a_at) / Fold change /veh TMEM200A (11744735_a_at) / RFU CCDC152 (11751479_a_at) / Fold change /veh CCDC152 (11751479_a_at) / RFU FAM211A (11726209_a_at) / Fold change /veh FAM211A (11726209_a_at) / RFU RGS16 (11746705_a_at) / Fold change /veh RGS16 (11746705_a_at) / RFU VCAN (11755009_s_at) / Fold change /veh VCAN (11755009_s_at) / RFU RHOB (11743442_s_at) / Fold change /veh RHOB (11743442_s_at) / RFU RGS16 (11720943_a_at) / Fold change /veh RGS16 (11720943_a_at) / RFU RGS16 (11720944_at) / Fold change /veh RGS16 (11720944_at) / RFU, VPS4B / Fold change vs veh, VPS4B / RFU, CREB1 / Fold change vs veh, CREB1 / RFU, DNAJC13 / Fold change vs veh, DNAJC13 / RFU, GNAQ / Fold change vs veh, GNAQ / RFU, CDK5R1 / Fold change vs veh, CDK5R1 / RFU, ZRANB3 / Fold change vs veh, ZRANB3 / RFU, CUL4A / Fold change vs veh, CUL4A / RFU, CCNY / Fold change vs veh, CCNY / RFU, UFL1 / Fold change vs veh, UFL1 / RFU, COG3 / Fold change vs veh, COG3 / RFU, DIAPH2 / Fold change vs veh, DIAPH2 / RFU, SKA2 / Fold change vs veh, SKA2 / RFU, AFF3 / Fold change vs veh, AFF3 / RFU, LMF1 / Fold change vs veh, LMF1 / RFU, IPO11 / Fold change vs veh, IPO11 / RFU, DFFB / Fold change vs veh, DFFB / RFU, FOXP1 / Fold change vs veh, FOXP1 / RFU, CARD8 / Fold change vs veh, CARD8 / RFU, STRN3 / Fold change vs veh, STRN3 / RFU, ADK / Fold change vs veh, ADK / RFU, RASSF2 / Fold change vs veh, RASSF2 / RFU, WIPF1 / Fold change vs veh, WIPF1 / RFU, LARP1B / Fold change vs veh, LARP1B / RFU, RASA1 / Fold change vs veh, RASA1 / RFU, RB1 / Fold change vs veh, RB1 / RFU, PPFIA1 / Fold change vs veh, PPFIA1 / RFU, MAT2A / Fold change vs veh, MAT2A / RFU, CCT5 / Fold change vs veh, CCT5 / RFU, WDR92 / Fold change vs veh, WDR92 / RFU, CUX1 / Fold change vs veh, CUX1 / RFU, TTC7A / Fold change vs veh, TTC7A / RFU, TMEM135 / Fold change vs veh, TMEM135 / RFU, DEPTOR / Fold change vs veh, DEPTOR / RFU, CPM / Fold change vs veh, CPM / RFU, DNAJB6 / Fold change vs veh, DNAJB6 / RFU, CACNA2D3 / Fold change vs veh, CACNA2D3 / RFU, DTX4 / Fold change vs veh, DTX4 / RFU, TFCP2 / Fold change vs veh, TFCP2 / RFU, GMCL1 /// GMCL1P1 / Fold change vs veh, GMCL1 /// GMCL1P1 / RFU, AEBP2 / Fold change vs veh, AEBP2 / RFU, SNHG1 /// SNORD22 /// SNORD25 /// SNORD26 /// SNORD27 /// SNORD28 /// SNORD29 /// SNORD31 / Fold change vs veh, SNHG1 /// SNORD22 /// SNORD25 /// SNORD26 /// SNORD27 /// SNORD28 /// SNORD29 /// SNORD31 / Fold change (Aza/veh), C12orf56 (ProbeSet 11735607_a_at) / Fold change (ACY-1035/veh), C12orf56 (ProbeSet 11735607_a_at) / Fold change (Aza/veh), FGFR1OP (ProbeSet 11751329_s_at) / Fold change (ACY-1035/veh), FGFR1OP (ProbeSet 11751329_s_at) / Fold change (Aza/veh), VPS36 (ProbeSet 11739960_a_at) / Fold change (ACY-1035/veh), VPS36 (ProbeSet 11739960_a_at) / RFU SYPL1 (11715823_x_at) / Fold change /veh SYPL1 (11715823_x_at) / RFU IGFBP7 (11715501_s_at) / Fold change /veh IGFBP7 (11715501_s_at) / RFU REEP3 (11722064_at) / Fold change /veh REEP3 (11722064_at) / RFU IGLL1 (11728026_x_at) / Fold change /veh IGLL1 (11728026_x_at): dose or concentration left out as unconfirmed
Conditions: ProbeSet 11728879_at; LIST B

Nc1ccc(-c2cccs2)cc1NC(=O)c1ccc2c(c1)cc(C1CC1)n2CCN1CCOCC1 [ACY-1035]
RFU, PPP3R1: 371.71 RFU
